According to US20080249033A1, “Carbamate Linked Macrolides Useful For The Treatment Of Microbial Infections” (priority 2004, published 2008):

Legend:
Format in all cases: cell-based
[1] = tested on: S. aureus Smith ATCC 0329; assay: MIC, microtiter broth serial dilution test; details: Staphylococcus aureus, ATCC0329
S. pneumoniae 0541 = assay: MIC, microtiter broth serial dilution test; details: Streptococcus pneumoniae
S. pyogenes 0542 = assay: MIC, microtiter broth serial dilution test; details: Streptococcus pyogenes
E. faecalis ATCC 0004 = assay: MIC, microtiter broth serial dilution test; details: Enterococcus faecalis, ATCC0004
H. influenzae ATCC 0529 = assay: MIC, microtiter broth serial dilution test; details: Haemophilus influenzae, ATCC0529
[2] = tested on: erythromycin resistant strains of Streptococcus pneumoniae; assay: MIC, erythromycin resistant strains
[3] = tested on: erythromycin resistant strains of Streptococcus pyogenes; assay: MIC, erythromycin resistant strains
M. catarrhalis ATCC 0324 = assay: MIC, microtiter broth serial dilution test; details: Moraxella catarrhalis, ATCC0324

Measured: MIC

CC[C@H]1OC(=O)[C@H](C)[C@@H](OC2C[C@@](C)(OC)[C@@H](OC(=O)NCCOCCOCCNc3cc4c(=O)c(C(=O)O)cn(C5CC5)c4cc3Cl)[C@H](C)O2)[C@H](C)[C@@H](OC2O[C@H](C)C[C@H](N(C)C)[C@H]2O)[C@](C)(OC)C[C@@H](C)C(=O)[C@H](C)[C@@H](O)[C@]1(C)O (some centres unmarked) [Example 1, 4″-O-2-{2-[2-(3-Carboxy-7-chloro-1-cyclopropyl-4-oxo-1,4-dihydro-quinolin-6-ylamino)-ethoxy]-ethoxy}-ethylcarbamoyl-6-O-methyl erythromycin A]
≤ 2 µg/mL: H. influenzae ATCC 0529
not listed: M. catarrhalis ATCC 0324
≤ 0.125 µg/mL: all other assays above

CC[C@H]1OC(=O)[C@H](C)[C@@H](OC2C[C@@](C)(OC)[C@H](OC(=O)NCCOCCOCCNc3cc4c(=O)c(C(=O)O)cn(C5CC5)c4cc3Cl)[C@@H](C)O2)[C@H](C)[C@@H](O[C@@H]2O[C@H](C)CC(N(C)C)[C@H]2O)[C@](C)(O)C[C@@H](C)CN(C)[C@H](C)[C@@H](O)[C@]1(C)O (some centres unmarked) [Example 2, 4″-O-2-{2-[2-(3-Carboxy-7-chloro-1-cyclopropyl-4-oxo-1,4-dihydro-quinolin-6-ylamino)-ethoxy]-ethoxy}-ethylcarbamoyl-azithromycin]
≤ 2 µg/mL: H. influenzae ATCC 0529
not listed: M. catarrhalis ATCC 0324
≤ 0.125 µg/mL: all other assays above

CC[C@H]1OC(=O)[C@H](C)[C@@H](O[C@H]2C[C@@](C)(OC)[C@@H](OC(=O)NCCOCCOCC#Cc3ccc4c(c3)c(=O)c(C(=O)O)cn4CC)[C@H](C)O2)[C@H](C)[C@@H](O[C@@H]2O[C@H](C)CC(N(C)C)[C@H]2O)[C@](C)(O)C[C@@H](C)CN(C)[C@H](C)[C@@H](O)[C@]1(C)O (some centres unmarked) [Example 3, 4″-(2-{2-[3-(3-Carboxy-1-ethyl-4-oxo-1,4-dihydro-quinolin-6-yl)-prop-2-ynyloxy]-ethoxy}-ethylcarbamoyl)-azithromycin]
≤ 0.5 µg/mL: M. catarrhalis ATCC 0324
not listed: [2] | [3]
≤ 0.125 µg/mL: all other assays above

CC[C@H]1OC(=O)[C@H](C)[C@@H](O[C@H]2C[C@@](C)(OC)[C@@H](OC(=O)NCCOCCOCCCc3ccc4c(c3)c(=O)c(C(=O)O)cn4CC)[C@H](C)O2)[C@H](C)[C@@H](O[C@@H]2O[C@H](C)CC(N(C)C)[C@H]2O)[C@](C)(O)C[C@@H](C)CN(C)[C@H](C)[C@@H](O)[C@]1(C)O (some centres unmarked) [Example 4, 4,1-(2-{2-[3-(3-Carboxy-1-ethyl-4-oxo-1,4-dihydro-quinolin-6-yl)-propoxy]-ethoxy}-ethylcarbamoyl)-azithromycin]
≤ 0.5 µg/mL: M. catarrhalis ATCC 0324
not listed: [2] | [3]
≤ 0.125 µg/mL: all other assays above
